Reference: paper PMC9114170, “Investigation of the Role of Hydrophobic Amino Acids on the Structure-Activity Relationship in the Antimicrobial Venom Peptide Ponericin L1” (The Journal of membrane biology, 2021)
Ends that are not written are not given here.

Legend:
[1] = test system: Sheep red blood cells (RBCs); settings: earlier work of the group; ref Senetra, Necelis & Caputo, 2020b; cited from earlier work
Description: The ponerine ant, Neoponera goeldii (previously classified as Pachycondyla goeldii), produces a mixture of venom peptides known as ponericins ([Orivel et al., 2001]). These peptides have been subdivided into three sub-classes based on the amino acid sequences (L, W, and G) and contain a total of 15 independent peptide sequences. […] Among these peptides, the L1 sequence was the most poorly characterized.

[2] = test system: Gram-positive and Gram-negative strains; assay: Antimicrobial activity over the MIC panel; type: cell-based; settings: highest concentration tested 15μM
Description: Six different strains of bacteria were streaked on LB-Miller agar plates from a frozen glycerol stock derived from the original samples shipped from CGSC (Coli Genetic Stock Center, Yale University) or ATCC (American Type Culture Collection) (Escherichia coli D31 CGSC 5165 ([Burman, Nordstrom & Boman, 1968]), Staphylococcus aureus ATCC 35556. Pseudomonas aeruginosa PA-01 ATCC 47085, Acinetobacter baumannii ATCC 19606). For each of the strains a liquid overnight culture was prepared using a single colony into fresh LB broth and placed in a shaking incubator for ~ 18 hours at 37 C at 225 rpm. After the incubation period, a 1:200 dilution was made in fresh LB broth and then used for experimentation. Minimal Inhibitory Concentration (MIC) determinations were performed using mid-log phase bacteria diluted to 5 x 10^5 CFU/mL. Next, 90 μL of this diluted culture was then pipetted into a sterile 96-well plate that contains serially diluted aliquots of the peptide variants to consist of a total volume of 100 μL. This plate was then incubated for 18 hours at 37 C. Bacterial growth was determined by taking an OD600 measurement using a Spectramax M5 multimode plate reader post incubation. Minimal Bactericidal Concentration (MBC) was performed by taking 1 μL of the culture from the MIC plate and then pipetting it on to a fresh LB agar plate. After plating this culture, the plate was then incubated overnight at 37 C. MBC was determined by the growth or the lack of growth from each well on the agar plate.
The ability of L1 and the hydrophobic variants to act as antimicrobials was investigated using the Minimal Inhibitory Concentration (MIC) and Minimal Bactericidal Concentration (MBC) assays as previously described ([Wiegand, Hilpert & Hancock, 2008]). The MIC is determined as the lowest concentration of peptide required to inhibit bacterial growth in solution, while the MBC is the lowest concentration required to act in a bactericidal mechanism (as opposed to bacteriostatic) and is determined by plating MIC cultures on antimicrobial-free media. Peptides were screened against E. coli, S. aureus, A. baumannii, P. aeruginosa, B. subtilis, and K. pneumoniae.

[3] = Acrylamide quenching of Trp fluorescence in absence and presence of lipid vesicles; type: physicochemical; settings: 2 μM peptide in PBS pH 7.0, λex 295 nm, λem 340, average of three replicates ± SD; for Acrylamide quenching Ksv, PCPG: 3:1 DOPC:DOPG vesicles; for Acrylamide quenching Ksv, PCPG / Acrylamide quenching Ksv, PEPG / Acrylamide quenching Ksv, PC / Acrylamide quenching Ksv, PC/Chol: 250 μM lipid; for Acrylamide quenching Ksv, PEPG: 3:1 POPE:DOPG vesicles; for Acrylamide quenching Ksv, PC: DOPC vesicles; for Acrylamide quenching Ksv, PC/Chol: DOPC:Cholesterol vesicles; for Acrylamide quenching Ksv, PBS: no lipid vesicles
Description: To form small unilamellar vesicles (SUVs) sonication or ethanol dilution methods were implemented ([Caputo & London, 2019]). In all cases, lipid vesicle preparation was the same. Depending on the lipid composition, appropriate volumes of lipids in chloroform were mixed in a glass tube and then allowed to dry under N2 gas for 15 minutes. The lipid films were then placed in a vacuum desiccator and allowed to dry further under a vacuum for 1 hour. For vesicles formed through ethanol dilution methods, 10 μL of pure ethanol was added to the film, and then vortex until the dissipation of the film. While continuing to vortex, the appropriate amount of PBS was added. For vesicles formed using the method of sonication, PBS was added directly to the tube while being vortexed to create multilamellar vesicles (MLVs). The MLV suspension was covered with parafilm and then placed in a high-powered bath sonicator (Avanti Lipids) and subjected to sonication for 20 minutes to create SUVs.
Acrylamide quenching was monitored by titration of samples with 10 μL aliquots of 4M acrylamide titrated into peptide samples prepared as described above. These samples contained either or [0.25] mM total lipid. After each addition of acrylamide, Trp fluorescence intensity was measured using λex = 295 nm and λem = 340. Corrections to the emission intensity were made for background subtraction, dilutions, and inner filter effects in the excitation path as described previously. The same method to calculate Ksv was used as above.
In order to gain more insight into the bilayer interactions, fluorescence quenching approaches were utilized. The peptides were exposed to the aqueous quencher acrylamide in solution or when bound to vesicles. […] Thus, peptide Trp exposure to the aqueous milieu can be gauged by the extent of quenching by acrylamide. Stern-Volmer quenching plots were created to analyze the data and Ksv (slopes of a linear fit to the data) are shown in Figure 4 and Table 2. […] In the case of L1L and L1I, there was a significant reduction in quenching between the solution (free) state of the peptide and when bound to anionic vesicles, but a much smaller reduction if any when interacting with zwitterionic vesicles. This is consistent with a more deeply buried Trp in anionic bilayers.

[4] = test system: E. coli D31 outer membrane; assay: E. coli outer membrane permeabilization (nitrocefin / β-lactamase); type: cell-based, Escherichia coli; settings: E. coli D31, nitrocefin hydrolysis, absorbance 486 nm, up to 90 minutes; peptide serially diluted from 15 μM; average of three replicates
Description: A single colony of E.coli D31 was taken from an LB agar plate and inoculated into fresh LB broth with 100 μg/mL ampicillin (LB-Amp), then place in a shaking incubator at 37 C (225 rpm) for ~ 18 hours. After the incubation period 100 μL was taken from the culture and diluted with 25 mL of fresh LB-Amp. The dilution was further incubated in the same conditions until an OD600 of 0.2 to 0.4 was obtained. Once the specified OD600 was reached the culture was then centrifuged at 2500 rpm for 15 minutes in a tabletop clinical centrifuge. The supernatant was discarded and then an equal amount of PBS (100 mM NaH2PO4, 200 mM NaCl, pH7) was used to resuspend the pellet.
Experimental samples were prepared in a 96-well plate in the order as follows: 10 μL of the six peptide variants that were serially diluted starting a concentration of 15 μM with the exception of the last row (used as a negative control 10 μL of 0.01% acetic acid). 80 μL of the resuspended bacteria culture, and 10 μL of 50 μg/mL nitrocefin in PBS. The absorbance was recorded at 486 nm in 5-minute intervals for a total run time of 90 minutes immediately following the addition of nitrocefin. The antimicrobial agent polymyxin B was used as a positive control. The values presented are the average of three replicates.
As the mechanism of action of the L1 venom peptide is likely a membrane disruptive mechanism, the effect of the hydrophobic substitutions on membrane permeabilization was investigated using E.coli and ovine red blood cells (RBCs). The permeabilization of the E. coli outer membrane was assayed using an enzyme-substrate pair in which the enzyme (β-lactamase) is located in the periplasmic space while the substrate (the chromogenic nitrocefin) is added to the exterior of cells. […] Similarly, the permeabilization of the E. coli inner membrane was assessed using a cytoplasmic enzyme, β-galactosidase, and a chromogenic substrate, ONPG. […]

[5] = Trichloroethanol (TCE) quenching of Trp fluorescence, solution aggregation assay; type: physicochemical; settings: 2 μM peptide in PBS pH 7.0, titration with 10M TCE, λex 280 nm, λem 340, average of three replicates
Description: Trichloroethanol (TCE) quenching was monitored by titration of samples with 10 μL aliquots of 10M TCE (Alfa Aesar, Haverhill, Massachusetts) into peptide samples prepared as described above. After each addition of TCE, Trp fluorescence intensity was measured using λex = 280 nm and λem = 340. Corrections to the emission intensity were made for background subtraction and dilutions. The slope of the linear best fit equation to the data (eqn 2) was used as the Stern-Volmer quenching constant (Ksv) (2) F0/F=1+Ksv[Q] where F0 is the fluorescence intensity in the absence of quencher, and F is the fluorescence intensity in the presence of a given concentration of quencher [Q].
The environment of the L1 Trp residue was further probed using fluorescence quenching by trichloroethanol (TCE) which selectively exerts quenching on Trp residues which are shielded from the aqueous milieu, such as at the interior of a peptide aggregate. The results are shown in Figure 2B, with the Ksv values for the quenching shown in Supplemental Table 1. […] However, considering the reduced overall hydrophobicity of this peptide and thus higher aqueous solubility, decreased TCE quenching is not surprising.

[6] = Red edge excitation shift (REES) solution aggregation assay; type: physicochemical; settings: 2 μM peptide in PBS pH 7.0, λex 280 to 307 nm, emission 310 to 410 nm, Trp fluorescence, average of three replicates
Description: All fluorescence spectroscopy experiments were preformed using a JY-Horiba Fluoromax4 instrument. Excitation and emission slit widths were kept consistent at 2.5 nm. Semi-micro quartz cuvettes were utilized for each experiment. The following formula was used to calculate a spectral barycenter for each experiment: (1) B=∑λ*i/∑i where B is the barycenter, λ is the wavelength, and i is the intensity at the specified wavelength. An entire emission spectrum from 300-400 was used the carry out the calculation of barycenter.
Red edge excitation shift (REES) experiments utilized excitation at 6 different wavelengths (λex = 280, 290, 295, 300, 305, and 307 nm) and the same emission range of 310 to 410 nm. Samples were similarly prepared as above. A blank only containing PBS buffer was used as background to correct the spectra after each addition.
Aggregation of peptides was assessed utilizing the intrinsic fluorescence properties of the Trp residue in the L1 sequence. […] Differences in the side chain motion/dynamics of the Trp residue and the local environment around the Trp can be observed by monitoring the red-edge excitation shifts (REES). […]

Row | Sequence | Hemolytic activity [1] | Antimicrobial activity (summary of MIC results) [2] | Acrylamide quenching Ksv, PCPG [3] [M⁻¹] | Acrylamide quenching Ksv, PEPG [3] [M⁻¹] | Acrylamide quenching Ksv, PC [3] [M⁻¹] | Acrylamide quenching Ksv, PC/Chol [3] [M⁻¹] | Acrylamide quenching Ksv, PBS [3] [M⁻¹] | Outer membrane permeabilization [4] | TCE quenching of Trp fluorescence (extent) [5] | REES total shift [6]
1 | LLKELWTKMKGAGKAVLGKIKGLL [L1, ponericin L1] | very low level of hemolytic activity |  |  |  |  |  |  |  |  | 
2 | IIKEIWTKMKGAGKAIIGKIKGII [L1I] |  | broad spectrum activity | 8.72 ± 2.09 | 3.39 ± 2.25 | 4.9 ± 1.51 | 12.65 ± 0.63 | 10.5 ± 0.67 | no membrane disruption above background |  | 
3 | AAKEAWTKMKGAGKAAAGKAKGAA [L1A] |  | no antimicrobial activity | 10.9 ± 0.26 | 3.59 ± 0.58 | 8.51 ± 0.46 | 10.79 ± 0.27 | 8.19 ± 0.90 |  | markedly lower than the others | 
4 | VVKEVWTKMKGAGKAVVGKVKGVV [L1V] |  | no antimicrobial activity | 16.86 ± 6.47 | 5.64 ± 0.38 | 4.18 ± 0.15 | 12.19 ± 1.54 | 12.14 ± 1.59 |  | showed the most quenching | ~ 10 nm
